This is an account of results in patent US9597347B2, “Compositions for treating obesity and insulin resistance disorders” (President and Fellows of Harvard College, priority 2003, dated 2017).

Molecules are shown by their SMILES.

The subject of one test is H4IIEC3 cells. The test can be described thus: Oxidation of 14C-palmitate in H4IIEC3 cells. The test is classed as cell-based. The conditions noted are these: resveratrol 10 μM in 1% DMSO, AICAR 500 μM in H2O, metformin 1 mM in H2O; 4 hours; vehicle = 1. Here is the method:
(§1) Oxidation of 14C-palmitate to acid-soluble products (modified from H4IIEC3 cells [Witters, L. A. and B. E. Kemp, Insulin activation of acetyl-CoA carboxylase accompanied by inhibition of the 5′-AMP-activated protein kinase. J Biol Chem, 1992. 267(5): p. 2864-7] and HepG2 cells were maintained as described above. Cells (10^6 cells/T25) were seeded in a T25 flask one day prior to the experiment. On the day of the experiment cells were washed with assay buffer (114 mM NaCl, 4.7 mM KCL, 1.2 mM KH2PO4, 1.2 mM MgSO4, 11 mM glucose) before labeling with 14C-palmitate (0.4 μCi/ml) in presence of vehicle, or resveratrol (10 μM), or AICAR (500 μM) for 4 hours.
(§2) At the end of incubation, the cap of each T25 flask was replaced with a stopper and a 1′×1.5″ Whatman filter paper soaked with 250 μl 2N NaOH. Each flask was injected with 2 ml of 6N HCL, placed in a horizontal position for 10 minutes and left standing overnight. The next morning, 1 ml H2O and 61 μl NaOH were added to a glass scintillation vial and the filter papers from each T25 flask were transferred to their respective vial. 10 ml Aquasol was added to each vial and allowed to stand for 2 hours, after which the vials were vortexed to dissolve the […] and counted in the scintillation counter. The results were expressed as nmols/h/106 cells and shown as the fold effect. ^14CO2 production ranged from 0.3 to 1.8 nmols/h/106 cells. The experiment was repeated three times.

In a further test the test system is HepG2 cells. The test can be described thus: Oxidation of 14C-palmitate in HepG2 cells. The test is classed as cell-based. The conditions noted are these: resveratrol 10 μM in 1% DMSO, AICAR 500 μM in H2O, metformin 1 mM in H2O; 4 hours; vehicle = 1. The method, then:
as §1, §2

The test system of test [1] is Wild-type N2 C. elegans worms. Nature of the test: Nile Red staining of fat accumulation in wild-type N2 C. elegans. The test is classed as in vivo. The conditions noted are these: 100 μM; for fat mobilization (fat content of the worms): L1 worms, vehicle DMSO.
Test [2] has as its system TNF-alpha treated adipocytes. The test can be described thus: Radioactive glucose uptake in TNF-alpha treated, insulin resistant adipocytes. The test is classed as cell-based. As to conditions: resveratrol 5 μM or 15 μM; roziglitazone 4 μM (positive control); with TNF-alpha. The method, then:
Adipocytes were treated with TNF-alpha to induce insulin resistance as described in Kabayama et al., Glycobiology 15:21-29 (2005) and Wu et al., Mol. Cell 3:151-8 (1999).

The next test concerns C. elegans worms. The test can be described thus: Nile Red fat staining in C. elegans fed RNAi bacteria. The test is classed as in vivo. The conditions noted are these: RNA inactivation of TOC1.8 (AMPK homolog) or F41E7.3 (COT homolog). The method, then:
The role of Sir2.1 in fat metabolism was shown in C. elegans worms in which Sir2.1 was RNA inactivated. Young adult worms were grown to adulthood in the presence of bacteria that carry RNAi vector alone or vector encoding Sir2.1 RNAi (R11A8.4), as described below. These worms were grown in the presence or absence of resveratrol, and stained with Nile-Red as described below.
We have examined the C. elegans database and found two gene products that are highly related to mammalian AMPK, TOC1.8 and Par2.3; five genes encoding homologs of CPT-1 and one gene encoding a homolog of COT. C. elegans worms were incubated with bacteria carrying RNAi vector alone, or interfering RNA against TOC1.8 or F41E7.3, a C. elegans homologue of COT in the presence or absence of AICAR. Fat accumulation was visualized with Nile-Red, as described below. […] Thus, AICAR/AMPK signaling to fatty acid oxidation is conserved in worms and mammalian cells.
The effect of TOC1.8 and COT inactivation was then investigated in C. elegans incubated with resveratrol. C. elegans worms were incubated with bacteria carrying RNAi vector alone, or a vector encoding TOC1.8 or COT interfering RNA in the presence or absence of resveratrol. Fat accumulation was visualized with Nile-Red, as described below.
RNAi plates were seeded with HTT5 E. coli carrying either the L4440 RNAi vector control or the specific RNAi clones T01C8.1, AMPK; R11A8.4, sir-2.1; or F41E7.6 COT in the presence or absence of 100 μM resveratrol. Young adults were transferred to plates containing the appropriate vector, Nile Red stain and drug then maintained at 25° C. Nile Red staining was assessed 24 hours after resveratrol treatment by UV microscopy.
HT115 E. Coli carrying the RNAi vector, L4440, were used for maintenance feeding. Bacteria containing experimental RNAi clones were cultured in 10 ml Luria Broth media containing 50 μg/ml ampicillin for 18 hours. 350 μl of each culture was spotted to a 60 mm dish containing NGM agar, 6 mM IPTG and 25 μg/ml carbenicillin. After overnight incubation (at room temp), Nile Red was added on top of each dish to a final concentration of 0.05 μg/ml along with the experimental compounds indicated in the figure legends. Nile Red staining was assessed after 24 hrs by UV microscopy. For each batch of RNAi clones tested, L4440 (vector alone) was included. […] All phenotypes were confirmed by at least three additional rounds of testing.

In test [3] the test system is phosphorylation of AMPK on threonine 172 and of ACC on serine 79. Nature of the test: Western analysis of AMPK and ACC phosphorylation in CHO-HIR cells. It counts as cell-based. The conditions noted are these: resveratrol 12.5, 25 or 50 μM; AICAR 500 μM (positive control); 30 minutes; serum-free overnight. The method, then: CHO-HIR mammalian cells were washed in PBS and incubated overnight in serum-free DMEM before treatment with 500 μM AICAR (positive control) or 12.5 μM, 25 μM or 50 μM resveratrol. Cells were harvested after 30 minutes and lysates were immediately boiled in SDS and subjected to Western analysis with site-specific antibodies. Phosphorylation of AMPK at Thr172 indicates activation of the kinase. Active AMPK phosphorylates and inactivates ACC at serine 79.
CHO cells were also treated with 500 μM AICAR (positive control), DMSO, 100 nM, 500 nM, 2.5 μM, 12.5 μM, 25 μM, or 50 μM resveratrol and subject to Western Blot analysis as described above. Western blots were stripped and re-probed for phosphorylated (active) AMPK, total AMPK, phosphorylated acetyl CoA carboxylase (ACC), which is the downstream target of AMPK, and tubulin, which served as a loading control.

For test [4], the system named is Wild-type N2 C. elegans worms. The test can be described thus: Nile Red staining of fat accumulation in wild-type N2 C. elegans. It counts as in vivo. As to conditions: 0, 1 or 10 mM, overnight. Here is the method: Wild-type N2 C. elegans worms were grown on OP50 bacteria and exposed overnight to vehicle (0.1% ethanol) alone or with 10, 50 or 100 μM of resveratrol (in ethanol). Fat accumulation was visualized with Nile Red staining, as described further below and in Ashrafi K, et al. Nature 421:268-27 (2003).
Synchronized starved L1 worms were grown in the presence of Nile Red. Strains were grown on NGM plates at 25° C. for approximately 48 hours until the young adult stage was reached. 20-30 young adult worms were then washed 2× with M9 buffer and transferred to new NGM/Nile red experimental plates that contained either OP50 or HTT5 E. coli carrying the L4440 RNAi control vector. For experiments comparing the effect of nicotinamide and resveratrol on fat mobilization, OP50 plates were coated with vehicle alone or Nicotinamide (in PBS), or vehicle alone and Resveratrol (in Ethanol or DMSO).
Resveratrol (Indofine #024964) was dissolved in Ethanol or DMSO to a 10 mM stock solution. Resveratrol was added to 60 mm NGM agar dishes containing either OP50 or RNAi expressing bacteria (HT115) to a final concentration of 10 μm, 50 μm, and 100 μM. Nile Red was also added to plates to a final concentration of 0.05 μg/ml. Nicotinamide (Supelco #47865-U) was diluted in PBS including Nile Red and added to […] dishes containing OP50 to a final concentration of 1 mM, 10 mM, or 100 mM.
Nile Red: Nile Red Powder (Sigma #N-3013) was dissolved in acetone at 500 μg/ml, diluted in 1× Phosphate Buffered Saline (PBS) including appropriate drug and applied to surface of Nematode Growth Media (NGM) plates previously seeded with OP50 or RNAi bacteria, at a final concentration of 0.05 μg/ml. Fat content was monitored and recorded by fluorescence microscopy.
Nile Red Staining was visualized by using a Nikon TE2000S microscope equipped with a CY3 filter (emission 535-685 nm). Images were captured using a SPOT RT monochrome digital camera attached to the Nikon Microscope with SPOT RT software v3.5. All Nile red images were acquired using identical settings and exposure times and then changed to red palette.

Turning to `CN(C)C(=N)N=C(N)N` [Metformin], the results for the “14C-CO2 production (Fold Effect)” value in the test on H4IIEC3 cells and with HepG2 cells were 2 Fold Effect and 3.5 Fold Effect, respectively.
In the case of `O=c1c(O)c(-c2ccc(O)c(O)c2)oc2cc(O)cc(O)c12` [quercetin, 3,5,7,3′,4′-Pentahydroxyflavone], in test [1] (48 hours), the “fat mobilization (fat content of the worms)” value is given as “stimulate fat mobilization”.
Turning to `Oc1cc(O)cc(/C=C/c2ccc(O)c(O)c2)c1` [piceatannol, 3,5,3′,4′-Tetrahydroxy-trans-stilbene], in test [1] (48 hours), the “fat mobilization (fat content of the worms)” value was “stimulate fat mobilization”.
Regarding `CSc1ccc(/C=C/c2cc(O)cc(O)c2)cc1` [3,5-dihydroxy-4′-thiomethyl-trans-stilbene], the fat staining entry in test [1] (24 hours, control 1% v/v DMSO) is “Significant reduction of fat staining”.
`CN(CCOc1ccc(CC2SC(=O)NC2=O)cc1)c1ccccn1` (centres unmarked) [roziglitazone, reference compound]: the “radioactive glucose uptake / insulin sensitivity” value in test [2] is on record as “increases the uptake of radioactive glucose”.
Consider `O=c1c(O)c(-c2ccc(O)c(O)c2)oc2cc(O)ccc12` [fisetin, 3,7,3′,4′-Tetrahydroxyflavone], for which, in test [1] (48 hours), the “fat mobilization (fat content of the worms)” value is “stimulate fat mobilization”.
With `O=C(/C=C/c1ccc(O)c(O)c1)c1ccc(O)cc1O` [butein, 3,4,2′,4′-Tetrahydroxychalcone], the “fat mobilization (fat content of the worms)” value in test [1] (48 hours) is listed as “stimulate fat mobilization”.
`NC(=O)c1ncn([C@@H]2O[C@H](CO)[C@@H](O)[C@H]2O)c1N` [AICAR, 5-aminoimidazole-4-carboxamide-1-beta-D-ribofuranoside, reference compound]: the fat mobilization result in the test with C. elegans worms is recorded as “inhibits AICAR-stimulated fat mobilization”. The “phosphorylation of AMPK (threonine 172) and ACC (serine 79)” value in test [3] was “stimulates phosphorylation of AMPK and ACC”. Further, the “14C-CO2 production (Fold Effect)” value in the test with H4IIEC3 cells worked out at 2.3 Fold Effect; in the test with HepG2 cells it was 5 Fold Effect.
In the case of `NC(=O)c1cccnc1` [nicotinamide, reference compound], in test [4], the fat accumulation result was “concentration dependent increase in fat accumulation”.
With `C(=C/c1ccccc1)/c1ccccc1` [cis-stilbene, cis-Stilbene], the fat staining entry in test [1] (L1 animals, 48 hours, control 2.5% v/v DMSO) was “No significant effect on worm fat staining”.
